Data as given in paper PMC12270681 (The Journal of Biological Chemistry, 2025).
Several values for one entry are separate records, joined by “and”; a condition that tells them apart may be missing. Equal entries are not always repeated.

How the values were obtained:
[1] = biological target: Dh-cParM1, chromosome-encoded ParM of the Desulfitobacterium hafniense Y51 Dh-cParMR-1 cassette (Desulfitobacterium hafniense Y51); assay: co-sedimentation
[2] = biological target: T1, Cb-cParM (Clostridium botulinum, UniProt A0A9Y2YAC8); conditions: class 2 (30 min) and 1 min with 3 mM GTP; Mg2+; pH 7.5; 25 °C; low resolution, nucleotide likely GTP or GDP-Pi
T1 construct: gene EXN02_10840

[3] = biological target: T2, Dh-cParM1 (Desulfitobacterium hafniense, UniProt Q24VP4); assay: polymerisation by sedimentation, EM; type: binding; set-up: gene DSY2109; synthetic gene, N- or C-side 8xHis tag with HRV 3C site, tag cut; E. coli BL21(DE3); polymerises into helical filaments; conditions: 5 mM nucleotide (sedimentation); pH 7.5, Mg2+, 24 °C
T2 sequence (Q24VP4 1-369): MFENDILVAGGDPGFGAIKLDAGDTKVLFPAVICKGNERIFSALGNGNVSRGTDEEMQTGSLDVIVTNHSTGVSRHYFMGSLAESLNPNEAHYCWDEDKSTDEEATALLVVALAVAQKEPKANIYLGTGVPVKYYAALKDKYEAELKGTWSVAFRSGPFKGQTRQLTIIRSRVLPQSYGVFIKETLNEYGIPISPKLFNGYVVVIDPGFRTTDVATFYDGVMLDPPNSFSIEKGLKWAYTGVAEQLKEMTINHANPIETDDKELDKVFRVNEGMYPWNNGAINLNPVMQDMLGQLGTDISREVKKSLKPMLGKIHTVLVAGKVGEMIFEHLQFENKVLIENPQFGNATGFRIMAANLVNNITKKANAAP

[4] = biological target: T1, Cb-cParM; conditions: polymerised with 3 mM GTP, 30 min, class 1; Mg2+; pH 7.5; 25 °C; nucleotide hydrolysed to GDP in the filament
[5] = biological target: T2, Dh-cParM1; set-up: gene DSY2109; conditions: 5 mM nucleotide (sedimentation); pH 7.5, Mg2+, 24 °C
[6] = biological target: T1, Cb-cParM; conditions: polymerised with 3 mM ATP, 30 min; Mg2+; pH 7.5; 25 °C; nucleotide hydrolysed to ADP in the filament
[7] = biological target: T2, Dh-cParM1; assay: cryo-EM structure of filament ([…] A); type: binding; set-up: gene DSY2109; synthetic gene, N- or C-side 8xHis tag with HRV 3C site, tag cut; E. coli BL21(DE3); polymerises into helical filaments; conditions: polymerised with 5 mM ATP; 40 mM HEPES pH 7.5, 400 mM KCl, 1 mM MgCl2; nucleotide state not unambiguous, ADP fits better

T1 sequence (A0A9Y2YAC8 1-285): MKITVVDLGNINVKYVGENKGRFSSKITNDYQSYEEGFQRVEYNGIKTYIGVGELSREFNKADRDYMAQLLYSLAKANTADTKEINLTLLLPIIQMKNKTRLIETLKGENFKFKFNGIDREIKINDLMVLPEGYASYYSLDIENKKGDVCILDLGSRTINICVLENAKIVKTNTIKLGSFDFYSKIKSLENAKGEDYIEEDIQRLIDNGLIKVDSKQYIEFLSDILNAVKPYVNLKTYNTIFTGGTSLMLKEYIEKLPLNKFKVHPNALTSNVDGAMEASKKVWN

**Q.** “Dh-cParM1, chromosome-encoded ParM of the Desulfitobacterium hafniense Y51 Dh-cParMR-1 cassette (natural protein)” was tested. Which residual concentration in the supernatants (compared with a critical concentration) [1] did it give?
**A.** Its residual concentration in the supernatants (compared with a critical concentration) is 4 µM and 5 µM.

**Q.** Which “cryo-EM structure of filament (6.5 A and 8.6 A); Pi release also measured” value [2] does the source give for `Nc1nc2c(ncn2[C@@H]2O[C@H](COP(=O)(O)OP(=O)(O)OP(=O)(O)O)[C@@H](O)[C@H]2O)c(=O)[nH]1` [GTP] here?
**A.** Its value is “suggesting that they were in the state before the phosphate release”.

**Q.** And the “polymerisation by sedimentation, EM” value [3]?
**A.** Its value is “Filaments were induced by the addition of ATP, GTP, and non-hydrolysable nucleotides”.

**Q.** For `Nc1nc2c(ncn2[C@@H]2O[C@H](COP(=O)(O)OP(=O)(O)O)[C@@H](O)[C@H]2O)c(=O)[nH]1` [GDP], which “cryo-EM structure of filament (3.5 A)” value [4] is on record?
**A.** The value was “indicating that the bound nucleotides had been hydrolyzed to ADP and GDP, respectively”.

**Q.** Which “polymerisation by light scattering, sedimentation, EM” value [5] does the source give for `Nc1ncnc2c1ncn2[C@@H]1O[C@H](COP(=O)(O)OP(=O)(O)OP(=O)(O)O)[C@@H](O)[C@H]1O` [ATP] here?
**A.** The value was “Dh-cParM1 polymerization induced by ATP was followed by light scattering”.

**Q.** Which “cryo-EM structure of filament (3.9 A)” value [6] does the source give for `Nc1ncnc2c1ncn2[C@@H]1O[C@H](COP(=O)(O)OP(=O)(O)O)[C@@H](O)[C@H]1O` [ADP] here?
**A.** Its value is “indicating that the bound nucleotides had been hydrolyzed to ADP and GDP, respectively”.

**Q.** What about the “cryo-EM structure of filament (4.0 A)” value [7] of the same compound?
**A.** Its value is “ADP appears to fit better into the cryoEM density map than ATP”.
